One compound from patent US20070286867A1, “Combination Therapy” (Fusion Antibodies Limited, priority 2003, published 2007) can be followed below.

In data set [1] the test system is Fas. The data set can be described thus: Western blot of Fas expression in H630 cells. In kind it is cell-based. Particulars: range of concentrations, 48 hours. How it is done:
(§1) Western Blotting. Western blots were performed as previously described (6). The Fas/CD95, Bc1-2 and BID (Santa Cruz Biotechnology, Santa Cruz, Calif.), caspase 8 (Oncogene Research Products, Darmstadt, Germany), p53 (Santa Cruz Biotechnology), and PARP (Pharmingen, BD Biosciences, Oxford, England) mouse monoclonal antibodies were used in conjunction with a horseradish peroxidase (HRP)-conjugated sheep anti-mouse secondary antibody (Amersham, Little Chalfont, Buckinghamshire, England). FasL rabbit polyclonal antibody (Santa Cruz Biotechnology) was used in conjunction with an HRP-conjugated donkey anti-rabbit secondary antibody (Amersham). TS sheep monoclonal primary antibody (Rockland, Gilbertsville, Pa.) was used in conjunction with an HRP-conjugated donkey anti-sheep secondary antibody (Serotech, Oxford, England). Equal loading was assessed using a β-tubulin mouse monoclonal primary antibody (Sigma).
(Immunoblotting shows a protein as a band on a membrane.)

The subject of data set [2] is MCF-7 cells. The data set can be described thus: MTT cell viability assay in MCF-7 cells. In kind it is cell-based. A general note: Formazan colour is commonly taken as a measure of viable cells.
Procedure: (§3) Cell Viability Assays. Cell viability was assessed by MTT (3-(4,5-dimethylthiazol-2-yl)-2,5-diphenyltetrazolium bromide, Sigma) assay (12). […] MTT (0.5 mg/ml) was then added to each well and the cells incubated at 37° C. for a further 3 hours. The culture medium was removed and formazan crystals reabsorbed in 200 μL DMSO. Cell viability was determined by reading the absorbance of each well at 570 nm using a 96-well microplate reader (Molecular Devices, Wokingham, England). […] Twenty microlitres (20 μL) MTT (5 mg/ml) was then added to each well and the cells incubated at 37° C. for a further 3 hours. The culture medium was removed and formazan crystals reabsorbed in 200 μL DMSO. Cell viability was determined by reading the absorbance of each well at 570 nm using an ELISA plate reader (Molecular Devices).
(§4) Statistical Analyses. The nature of the interaction between the chemotherapeutic drugs and CH-11 was determined by calculating the R index (RI), which was initially described by Kern and later modified by Romaneli (13, 14). […] Synergism is then defined as an RI of greater than unity. […] To further assess the statistical significance of the interactions, the inventors designed a univariate ANOVA analysis using the SPSS software package. This was an additive model based on the null hypothesis that there was no interaction between the drugs.
Data set [3] concerns Fas. Put plainly: Western blot of Fas expression in MCF-7 cells. It counts as cell-based. As to the method:
as §1

The test system of a further data set is Fas/CD95 receptor. Put plainly: Flow cytometry of Fas/CD95 cell surface expression, HCT116 p53 wild-type. It counts as cell-based, human. To be noted: 24 hours. How it is done: (§2) Where flow cytometric analysis was employed in Examples 1 to 5, the following protocol was used. Cells were seeded at 1×10^5 per well of a 6-well tissue culture plate. […] DNA content of harvested cells was evaluated after propidium iodide staining of cells using the EPICS XL Flow Cytometer (Coulter, Miami, Fla.). Where flow cytometric analysis was employed in Examples 6 to 12, the following protocol was used. Cells were seeded at 1×10^5 per well of a 6-well tissue culture plate. […] DNA content of harvested cells was evaluated after propidium iodide staining of cells using the EPICS XL Flow Cytometer (Coulter). A FITC-conjugated monoclonal anti-human Fas antibody (DAKO) was used to determine cell surface expression of the receptor. Cells were collected and washed twice in PBS before incubating in the antibody (1/20 dilution) at 4° C. for 30 mins. A non-reactive FITC-conjugated mouse IgG1 antibody was used as a negative control for each sample. Following incubation the cells were washed twice with PBS containing 2% bovine serum albumin and fixed in 0.3 mL 4% paraformaldehyde. Samples were then analysed on the EPICS XL Flow Cytometer (Coulter).
In general terms: Flow cytometry measures light scatter and fluorescence of single cells or particles in a stream.

Another data set concerns HCT116p53^+/+ cells. Put plainly: MTT cell viability assay in HCT116 p53 wild-type cells. It counts as cell-based, human. To be noted: range of drug concentrations 24 hours, then CH-11 200 ng/ml for 48 hours.
The subject of data set [4] is R175H p53 mutant cell line. How it is done: Plasmids containing the p53 mutations R175H and R248W were kindly provided by Prof. G. Lozano (MD Anderson Cancer Center, Houston). […] Cells were seeded on p90 dishes in Optimem, (Invitrogen) supplemented with 10% FCS, at a density of 1×10^5 cells/dish. Transfection was carried out the following day when the monolayer was approximately 70% confluent. Cells were cotransfected with 1 μg pIRESpuro3 DNA and 20 μg pC53NN p53 mutant DNA using Genejuice Transfection reagent (Novagen, CA, USA) according to the manufacturer's instructions. Stably transfected cells were selected over approximately 14 days in medium containing […] puromycin. […] The DO-1 antibody binds to an N-terminal epitope between amino acid residues 11 and 25.
Cell Viability Assays. Cell viability was assessed by MTT (3-(4,5-dimethylthiazol-2-yl)-2,5-diphenyltetrazolium bromide, Sigma) assay (12). […] Cell viability was determined by reading the absorbance of each well at 570 nm using a 96-well microplate reader (Molecular Devices, Wokingham, England). […]
Statistical Analyses. The nature of the interaction between the chemotherapeutic drugs and CH-11 was determined by calculating the R index (RI), which was initially described by Kern and later modified by Romaneli (13, 14). […]

Another data set concerns M7TS90-E6 cells. Put plainly: Flow cytometry sub-G1/G0 apoptotic fraction, M7TS90-E6. It counts as cell-based. Particulars: 96 hours after drug treatment; RTX 100 nM, MTA 1 μM, 5-FU 10 μM. As to the method: as §2
Data set [5] deals with Fas. Put plainly: Western blot of Fas expression in HCT116 p53 wild-type cells. In kind it is cell-based, human. How it is done: as §1
The test system of the next data set is Fas mRNA. Put plainly: Northern blot of Fas mRNA in MCF-7 cells. It counts as cell-based. To be noted: 48 hours, 5 μM 5-FU. How it is done: Northern blot analysis. Northern blots were performed as described previously using a cDNA probe complementary to the Fas coding region (7). Equal loading was assessed using a P-tubulin cDNA probe.
The test system of another data set is HCT116p53^−/− cells. Put plainly: MTT cell viability assay in HCT116 p53 null cells. It counts as cell-based, human. Particulars: range of drug concentrations 24 hours, then CH-11 200 ng/ml for 48 hours.
Data set [6] relates to Fas. Put plainly: Western blot of Fas expression in M7TS90-E6 cells. In kind it is cell-based. Particulars: 10 μM 5-FU, 100 nM RTX or 1 μM MTA. As to the method: as §1
Data set [7] concerns Fas. Put plainly: Western blot of Fas expression in RKO cells. In kind it is cell-based. To be noted: 48 hours post-treatment; MTA data not shown. How it is done:
as §1

The next data set relates to procaspase 8, BID, PARP. The data set can be described thus: Western blot of procaspase 8, BID and PARP in MCF-7 cells. It counts as cell-based. Particulars: 5 μM 5-FU or 25 nM RTX 72 hours; CH-11 250 ng/ml 24 hours. How it is done:
as §1

The subject of data set [8] is MCF-7 cells. Put plainly: Flow cytometry of propidium iodide stained cells, sub-G1/G0 apoptotic fraction, MCF-7. It counts as cell-based. Particulars: 5 μM 5-FU alone 96 hours, or 72 hours followed by 250 ng/ml CH-11 24 hours. As to the method:
as §2

A further data set concerns FasL. The data set can be described thus: Western blot of FasL expression in MCF-7 cells. It counts as cell-based. Particulars: IC60 doses, 72 hours. How it is done:
as §1

Another data set has as its system Fas/CD95 mRNA. Put plainly: Real-time PCR of Fas/CD95 mRNA in HCT116 p53 null cells. To be noted: IC60 72hrs doses, 24 and 48 hours. It counts as cell-based, human. How it is done:
Real-time PCR was performed using a DNA Engine Opticon 2 (MJ Research Incorporated). TheDyNAmo SYBR Green qPCR kit (Finnzymes) was used as the fluoresent dye specific for double-stranded DNA. PCR conditions consisted of an initial denaturation step of 95° C. for 10 minutes, followed by 39 cycles of 94° C. for 10 secs, 55° C. for 20 secs and 72° C. for 20 secs, with a final extension of 72° C. for 10 minutes. A melting curve was included at the end of each run to check the specificity of the amplified product. Experiments were performed in triplicate to ensure reproducibility of the technique. On completion of the run the PCR products were run put on a 2% ethidium bromide agarose gel to confirm that their size matched that of the expected amplicon. Primer sequences were as follows: Fas (Forward) […], Fas (Reverse) […], 18S (Forward) […], 18S (Reverse) […].

The subject of a further data set is Fas receptor. The data set can be described thus: Fas/CD95 cell surface expression in p53 mutant H630 cell line (Example 11). It counts as cell-based. Particulars: 48 hours; 5-FU 5 μM, CPT-11 5 μM, Oxaliplatin 1 μM. As to the method: as §2

Procedure for HCT116p53^+/+ cells: as §3, §4
Procedure for HCT116p53^−/− cells: as §3, §4

Consider `O=c1[nH]cc(F)c(=O)[nH]1` [5-FU, 5-fluorouracil], for which the “Fas expression” value is listed as “not significantly altered” with Fas [1]; “dramatic up-regulation” in the data set with Fas [3] (MTA data not shown, CH-11 alone 250 ng/ml, 5-FU alone 5 μM); “dramatic Fas up-regulation” with Fas [7]. For the same compound, the cytotoxicity at 5 µM in the data set with MCF-7 cells [2] (Homo sapiens, MCF7, read-out: decrease in cell viability compared to control) was roughly 60%. In the data set on MCF-7 cells [2] (MCF-7), this compound showed an IC60 dose of 5 µM. The same compound displayed a Fas protein up-regulation in the data set with Fas [3] (72 hours, IC60 dose (5 μM 5-FU, 25 nM RTX)) of roughly 12 fold. The “induction of Fas/CD95 receptor cell surface expression” value in the data set with Fas/CD95 receptor is “significantly induce expression”. Moreover, the “interaction with CH-11 in MTT assay” value in the data set with HCT116p53^+/+ cells was “significant synergy”; in the data set on HCT116p53^−/− cells, “only slight interaction”. In data set [4], the “synergistic cytotoxicity of combination with CH-11” value was “synergistic cytotoxicity was demontsrated”. Besides, the “induction of apoptosis by drug alone” value in the data set on M7TS90-E6 cells is on record as “little apoptosis”. The “induction of Fas/CD95 protein” value with Fas [5] (5-FU 5 μM, CPT-11 5 μM, Oxaliplatin 1 μM for 48 hours) is given as “significant induction”. The “up-regulation of Fas expression” value in the data set on Fas [5] (after 48 hours) was greater than 10 fold. Besides, the “Fas mRNA expression” value in the data set on Fas mRNA is reported as “up-regulated”. The “Fas up-regulation” value in the data set with Fas [6] was “did not result in Fas up-regulation”. Besides, in the data set with procaspase 8, BID, PARP, the “activation of caspase 8 and BID (processing of procaspase 8 and full-length BID), words” value is “neither caspase 8, nor its substrate BID were activated”. The “induction of apoptosis (sub-G1/G0 fraction)” value in the data set with MCF-7 cells [8] is reported as roughly 2 fold. In the data set with FasL, the “FasL expression” value is “unaffected”. In the data set on Fas/CD95 mRNA, the “maximum induction of Fas mRNA” value stood at 2 fold. Further, the “induction of the Fas receptor” value in the data set on Fas receptor was “Neither 5-FU nor Oxaliplatin treatment for 48 hours caused significant upregulation”.
